In ChEMBL document CHEMBL4118090, “Dihydrothieno-pyridin-one and Tetrahydrothieno-azepinone Inhibitors of Enhancer of Zeste Homologue 2” (ACS Med Chem Lett, 2017) one finds IC50 data, which are given here for 6 compounds.

As a reminder, the IC50 is the concentration needed to halve the response being measured.

The target in the assay is Histone-lysine N-methyltransferase EZH2 (Homo sapiens, UniProt Q15910). Kind of assay: Inhibition of methyltransferase activity of flag-tagged EZH2 in human PRC2 complex expressed in Sf9 insect cells using biotinylated histone H3K27 peptide as substrate after 60 mins in presence of 3H-SAM by scintillation proximity assay.
Chain of Histone-lysine N-methyltransferase EZH2 (Q15910 whole entry): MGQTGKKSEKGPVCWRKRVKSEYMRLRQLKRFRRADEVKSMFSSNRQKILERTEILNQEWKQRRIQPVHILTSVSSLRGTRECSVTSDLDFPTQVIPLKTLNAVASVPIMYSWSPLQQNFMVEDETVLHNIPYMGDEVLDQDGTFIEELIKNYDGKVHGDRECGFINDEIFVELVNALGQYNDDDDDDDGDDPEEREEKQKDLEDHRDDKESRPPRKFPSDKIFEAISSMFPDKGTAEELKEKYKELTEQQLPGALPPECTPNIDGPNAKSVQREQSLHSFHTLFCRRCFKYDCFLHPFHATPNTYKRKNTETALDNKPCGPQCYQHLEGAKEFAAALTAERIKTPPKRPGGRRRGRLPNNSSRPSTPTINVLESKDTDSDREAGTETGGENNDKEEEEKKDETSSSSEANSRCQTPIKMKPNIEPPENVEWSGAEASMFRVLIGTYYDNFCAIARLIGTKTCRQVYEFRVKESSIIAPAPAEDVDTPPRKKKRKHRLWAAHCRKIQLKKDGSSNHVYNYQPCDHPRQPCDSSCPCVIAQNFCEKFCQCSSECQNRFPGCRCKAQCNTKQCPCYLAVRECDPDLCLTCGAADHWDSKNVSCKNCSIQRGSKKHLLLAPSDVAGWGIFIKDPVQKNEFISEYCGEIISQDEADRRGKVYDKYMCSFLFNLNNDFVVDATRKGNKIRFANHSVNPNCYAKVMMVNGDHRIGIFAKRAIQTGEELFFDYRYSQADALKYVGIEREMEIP
As for `CC[C@@H](c1sc2c(c1C)CN(C(=O)c1c(C)cc(C)[nH]c1=O)CC2)C1CCN(Cc2ccccn2)CC1`, the IC50 was not above 10 nM.

Consider `CC[C@@H](c1scc(C(=O)NCc2c(C)cc(C)[nH]c2=O)c1C)C1CCN(Cc2ccc(Cl)cn2)CC1`, for which the IC50 was not above 10 nM. As to `CC[C@@H](c1sc2c(c1C)C(=O)N(Cc1c(C)cc(C)[nH]c1=O)CC2)C1CCN(Cc2ccccc2)CC1`, the IC50 was not above 10 nM.

For `Cc1cc(C)c(CN2CCCc3sc([C@H](C)C4CCN(Cc5ccccn5)CC4)c(C)c3C2)c(=O)[nH]1`, the IC50 was not above 10 nM. Turning to `CC[C@@H](c1sc2c(c1C)CN(Cc1c(C)cc(C)[nH]c1=O)CC2)C1CCN(Cc2ccnc(OC)c2)CC1`, the IC50 was not above 10 nM. Regarding `Cc1cc(C)c(CN2CCCc3sc([C@H](C)C4CCN(CC5CCCCC5)CC4)c(C)c3C2)c(=O)[nH]1`, the IC50 is not above 10 nM.
